Assay results: patent US20140371165A1, “Identification of NSC23925 Isomers to Reverse Multidrug Resistance in Human Cancers” (priority 2012, published 2014)
Counter-ions that a name gives are not always drawn.

What was measured:
[1] = Solubility in organic solvents; format: physicochemical
MCF-7/MX = assay: MTT reversal of BCRP-mediated MDR in MCF-7/MX; format: cell-based, human; details: non-Pgp expressing drug resistant cell line
Excerpt: A panel of parental cancer cell line and their daughter resistant cell lines, displaying MDR phenotype were used in this study. Human ovarian cancer cell line SKOV-3, breast cancer cell line MCF-7 and colon cancer cell line SW480, the osteosarcoma cell line U-2OS, KHOS, uterine sarcoma cell line MESSA and its doxorubicin selected drug resistant cell line MESSA/Dx5, non-small cell lung cancer cell line H-69 and its doxorubicin selected drug resistant cell line H-69AR (overexpress MRP1) were obtained from the ATCC (Rockville, Md.). Dr. Efstathios Gonos (Institute of Biological Research & Biotechnology, Athens, Greece) provided the doxorubicin resistant U-2OS R2 (referred in the text below as U-2OSDR), KHOS R2 cell lines. Dr. Erasmus Schneider (Wadsworth Center, Albany) provided the mitoxantrane resistant breast cancer MCF-7/MX (overexpress BCRP) cell line. […]
To evaluate for reversal of Pgp-mediated MDR, SKOV-3TR, MCF-7adr and SW480TR cell lines were seeded into 96-well tissue culture plate at 2,000 cells per well with varying concentrations of chemotherapy drugs and NSC23925b for 6 days. […] Drug cytotoxicity was assessed in vitro using the MTT assay as previously described. Drugs at the concentrations utilized in the MTT assay were performed in the absence of cells to verify no change in absorbance. […]

SW480TR = assay: MTT cytotoxicity assay and reversal of MDR in SW480TR; format: cell-based, human
Excerpt: A panel of parental cancer cell line and their daughter resistant cell lines, displaying MDR phenotype were used in this study. Human ovarian cancer cell line SKOV-3, breast cancer cell line MCF-7 and colon cancer cell line SW480, the osteosarcoma cell line U-2OS, KHOS, uterine sarcoma cell line MESSA and its doxorubicin selected drug resistant cell line MESSA/Dx5, non-small cell lung cancer cell line H-69 and its doxorubicin selected drug resistant cell line H-69AR (overexpress MRP1) were obtained from the ATCC (Rockville, Md.). Dr. Efstathios Gonos (Institute of Biological Research & Biotechnology, Athens, Greece) provided the doxorubicin resistant U-2OS R2 (referred in the text below as U-2OSDR), KHOS R2 cell lines. Dr. Erasmus Schneider (Wadsworth Center, Albany) provided the mitoxantrane resistant breast cancer MCF-7/MX (overexpress BCRP) cell line. All the cell lines were cultured in RPMI 1640 (Invitrogen, Carlsbad, Calif.) supplemented with 10% fetal bovine serum, 100-units/ml penicillin and 100 μg/ml streptomycin (Invitrogen). Cells were incubated at 37° C. in 5% CO2-95% air atmosphere and passaged when near confluent monolayers were achieved using 2% trypsin-EDTA solution. […] The fresh chemotherapy drugs were obtained from the pharmacy at the Massachusetts General Hospital and stored at −20° C.
To evaluate for reversal of Pgp-mediated MDR, SKOV-3TR, MCF-7adr and SW480TR cell lines were seeded into 96-well tissue culture plate at 2,000 cells per well with varying concentrations of chemotherapy drugs and NSC23925b for 6 days. Cell proliferation IC50 (concentration required for 50% inhibition) and MDR reversal IC50 were determined from dose-response curves carried out in triplicate in 96-well plate. Fold of reverse resistance for individual drugs were defined as the IC50 of MDR cells without NSC23925b treatment divided by the IC50 of MDR cells treated with NSC23925b. […] Drug cytotoxicity was assessed in vitro using the MTT assay as previously described. […] Response curves were fitted with use of GraphPad PRISM 4 software (GraphPad Software).
MCF-7adr and SW480TR cells were treated with paclitaxel (FIGS. 2A-B), doxorubicin (FIGS. 2C-D) or mitoxantrane (FIGS. 2E-F) and NSC23925b in RPMI1640 complete media at the indicated concentrations. The relative sensitivity of each line to the indicated drugs was determined by MTT analysis 6 days post-treatment.

COc1ccc(-c2cc([C@H](O)[C@H]3CCCCN3)c3ccccc3n2)cc1 [NSC23925b, (2-(4-methoxyphenyl)quinolin-4-yl)(piperidin-2-yl)methanol hydrochloride]
solubility in other solvents ([1]; either, ethyl acetate, chloroform, dichloromethane, acetone, tetrahydrofuran, cyclohexane, cyclopentane, hexanes, pentane): not soluble
solubility in methanol ([1]; methanol): soluble
5 milligram solubility in methanol ([1]; volume of methanol for 5 milligram): 450 µL
reversal of BCRP mediated drug resistance (MCF-7/MX): unable to reverse drug resistance
fold-reversal of drug resistance (SW480TR; Doxorubicin, NSC23925b 0.1 μM): 1.7 fold
fold-reversal of drug resistance (SW480TR; Doxorubicin, NSC23925b 0.5 μM): 3 fold
fold-reversal of drug resistance (SW480TR; Doxorubicin, NSC23925b 1 μM): 8 fold
reverse paclitaxel, doxorubicin, and mitoxantrane resistance (SW480TR; MTT 6 days post-treatment): able to reverse
fold-reversal of drug resistance (SW480TR; Mitoxantrane, NSC23925b 0.1 μM): 1.2 fold
fold-reversal of drug resistance (SW480TR; Mitoxantrane, NSC23925b 0.5 μM): 3 fold
fold-reversal of drug resistance (SW480TR; Mitoxantrane, NSC23925b 1 μM): 14 fold
fold-reversal of drug resistance (SW480TR; Paclitaxel, NSC23925b 0.1 μM): 1.3 fold
fold-reversal of drug resistance (SW480TR; Paclitaxel, NSC23925b 0.5 μM): 8 fold
fold-reversal of drug resistance (SW480TR; Paclitaxel, NSC23925b 1 μM): 13 fold
